Measured values as given in PubChem BioAssay AID743133 (The Scripps Research Institute Molecular Screening Center, 2013).

Target: Acyl-protein thioesterase 1 (Homo sapiens) + Acyl-protein thioesterase 2 (Homo sapiens) (UniProt O75608+O95372)
Test: covalent versus reversible binding mode of APT1/APT2 inhibitors – cell lysate, HeLa lysate, fluorescence gel ABPP, mechanism study for LYPLA1/LYPLA2 inhibitor project, late-stage follow-up (AID 743133)
Conditions: HeLa lysate gel-based ABPP, FP-Rh; for recovery after gel filtration: stronger effect = lower value; for inhibition: gel filtration, stronger effect = higher value

Chain of Acyl-protein thioesterase 1 (Homo sapiens) + Acyl-protein thioesterase 2 (Homo sapiens) (O75608 whole entry, looked up, one chain of several): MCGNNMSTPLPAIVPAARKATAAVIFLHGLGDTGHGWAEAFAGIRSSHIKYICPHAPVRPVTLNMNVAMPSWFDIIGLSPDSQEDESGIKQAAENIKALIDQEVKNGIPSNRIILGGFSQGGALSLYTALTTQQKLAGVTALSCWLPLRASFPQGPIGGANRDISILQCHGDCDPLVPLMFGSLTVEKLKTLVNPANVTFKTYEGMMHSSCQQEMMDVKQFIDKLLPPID

recovery after gel filtration (at 0.2 µM): 0%
recovery after gel filtration (at 1 µM): 0%
inhibition (at 0.2 µM, post-gel filtration inhibition): 85%
inhibition (at 0.2 µM, pre-gel filtration inhibition): 85%
inhibition (at 1 µM, post-gel filtration inhibition): 95%
inhibition (at 1 µM, pre-gel filtration inhibition): 95%
Structure (SMILES): O=C(ON1C(=O)C2CN(C(=O)N3CCOCC3)CCN2C1=O)N1CCC(CCc2ccc(Cl)cc2)CC1 (stereo unspecified)
